These results are taken from US12083133B2, “Use of cholecalciferol as adjuvant in the treatment of muscular dystrophies” (ABIOGEN PHARMA SPA, priority 2021, dated 2024).

For data set [1] the following is noted: cited from earlier work.
The test system of data set [2] is muscle fibres of mdx mice. Nature of the data set: Fluorescence microscopy of muscle fibres (DAPI, anti-WGA). In kind it is in vivo, mouse. As to conditions: 12 weeks of treatment, versus untreated control mdx mice. The source says:
In fluorescence microscopy analyses DAPI staining (blue) was used for nuclei, while an anti-WGA antibody (WGA, or wheat germ agglutinin, Alexa Fluor® 594 conjugate), which stains cell membranes in red, was used to mark muscle fibres.

Another data set has as its system Pax7. Nature of the data set: Immunohistochemistry with anti-Pax7 antibody (satellite cells). In kind it is in vivo, mouse. The protocol:
(§1) Skeletal muscle growth and regeneration are attributable to satellite cells, which are stem cells resident in the basal lamina surrounding each myofiber. The expression of Pax7 (Paired-Box Transcription Factor 7) is constitutive, that is, this factor is expressed in these cells both in the quiescent and in the activation phase. When satellite cells are activated, they also co-express MyoD, which correlates with active muscle regeneration.
(§2) The expression of Pax7 was then analysed for the identification of satellite cells (progenitors) located under the basal lamina of myofibers, and of MyoD, expressed by myoblasts during proliferation.
(§3) Analyses were performed on the groups after 24 weeks of treatment.
(§4) Samples for immunohistochemistry were included in OCT, placed in isopentane, frozen with liquid nitrogen and kept at −80° C. Anti-Pax7 antibodies were used to label satellite cells and anti-MyoD for myoblasts.

The subject of a further data set is MyoD. Nature of the data set: Immunohistochemistry with anti-MyoD antibody (proliferating myoblasts). As to conditions: mdx mice, 24 weeks of treatment. In kind it is in vivo, mouse. As to the method:
as §1, §2, §3, §4

Data set [3] deals with muscle tissue of mdx mice. Nature of the data set: Histopathologic analyses of muscle tissue (haematoxylin-eosin), graded 0 (absent) to 3 (very high). In kind it is in vivo, mouse. The protocol: These analyses were performed on the material taken during necropsy performed after the sacrifice of the animals of groups 7 and 8. In particular, the quadriceps femoris, the diaphragm and the anterior tibial muscle were collected.
The samples taken and fixed were decalcified, embedded in paraffin according to the known technique, cut into 5-7 μm thick sections and stained with haematoxylin-eosin. The following forms of alteration were evaluated at the muscle tissue level, each of which was classified according to a grade from 0 (absent) to 3 (very high): • Atrophy • Degeneration • Inflammation • Oedema • Presence of adipose tissue • Hypertrophy • Regeneration • Mineralization Results

The subject of another data set is mdx mice. The data set is described as follows: Four limb hang test. In kind it is in vivo, mouse. The source says:
For the study, it was chosen as experimental model the mdx (Muscular Dystrophy X-linked) mouse, which has long been used to evaluate the efficacy of drugs against muscular dystrophy and other degenerative diseases that affect skeletal muscles, inducing functional loss. These mice represent the reference animal model for clinical projections, also because they made it possible to overcome the obstacle of the limited availability of human biopsy material for experimental purposes.
The model responds to both steroidal and non-steroidal anti-inflammatory and immunosuppressive treatments and it is also used to study the differential gene and protein expression induced by the various treatments. The test system altogether consisted in 50 C57BL/10ScSn-Dmdxdx/J male mice and 27 C57/BL male mice of about 4-5 weeks of age.
After a short pre-housing period (about 4 days after arrival in the animal enclosure), the animals were subjected to baseline behavioural analyses, as described hereafter. The start time of the analyses, after the pre-housing period, is defined zero time (t=0).
Mice were also subjected to physical exercise with a rotating treadmill (Ugo Basile, Milan) for 15 minutes twice a week at a speed of 12 m/min, to standardize the pathology.
This test was performed at the beginning and at the end of the trial (baseline and final). It is performed using a device that uses a steel grid to measure the mouse's ability to support itself on all four limbs, opposing the force of gravity. The animal is placed on the grid (40×40 cm, delimited by iron strips placed perpendicular to the grid and 5 cm high, with 1 cm squares formed by 1 mm diameter steel wire) which is inverted so that the animal finds itself upside down and hangs on with its paws, about 30 cm from the floor. […] The grid is kept in position for a maximum of 5 minutes and the time, in seconds, during which the animal is able to hang with its paws is recorded.
The results of test are shown in the following table 2 and are expressed in seconds and normalized for the animal's weight. Groups 1-8 reported herein are those described in table 1.

In another data set the test system is muscular dystrophies. As to conditions: state of the art; cited from earlier work.
In the next data set the test system is Duchenne dystrophy. As to conditions: state of the art; optimal dose 0.75 mg/kg per day; cited from earlier work.
The mark [4] stands for this setting: group 8, mdx mice, 175 μg/kg/day once a week, t = 24 weeks, grade 0 to 3.

“Also recorded” adds a separate entry of the source.

As for `C=C1CC[C@H](O)C/C1=C/C=C1\CCC[C@]2(C)[C@@H]([C@H](C)CCCC(C)C)CC[C@@H]12` [cholecalciferol], the “Blood half-life (T1/2)” value in data set [1] (estimated) is 19 to 25 h. Also, the Functional half-life entry in data set [1] (related to slow release from adipose tissue) is listed as “several weeks”. For the same molecule, the “Structure of muscle fibres and position of cell nuclei” value in data set [2] was “cell nuclei distributed both centrally and peripherally and less disrupted muscle fibres; also recorded: visibly less disrupted”. The “Positivity of muscle tissue for anti-Pax7 antibody (marker of satellite cells)” value in the data set with Pax7 (mdx mice treated with cholecalciferol) is reported as “highly positive”. Further, in the data set on Pax7 (mdx mice, 24 weeks of treatment, versus vehicle-treated mdx mice), the “Labelling with anti-Pax7 antibody (satellite cells)” value was “clearly present and localized on the contours of the muscle fibres; also recorded: more evident”. The “Labelling with anti-MyoD antibody / expression of MyoD” value in the data set with MyoD is “appears extensive; also recorded: restored the expression of MyoD to levels similar to those of wild-type mice”. For the same molecule, in data set [3] (group 8, mdx mice, 175 μg/kg/day once a week, t = 24 weeks, grade 0 (absent) to 3 (very high)), the “Medium Grading: Atrophy” value came to 0.44. In addition, in data set [3] (setting [4]), the “Medium Grading: Degeneration” value stood at 0, the “Medium Grading: Hypertrophy” value is on record as 2.11, the “Medium Grading: Inflammation” value is 0 and the “Medium Grading: Mineralization” value came out at 0.33. In data set [3] (setting [4]), the “Medium Grading: Oedema” value turned out to be 0.44, the “Medium Grading: Presence of adipose tissue” value was 0.11 and the “Medium Grading: Regeneration” value stood at 2.66. For the same molecule, in data set [3] (mdx mice treated for 24 weeks), the “Microscopic examination of muscle tissue stained with haematoxylin-eosin (in words)” value is “areas of regeneration and hypertrophy, and only in few cases muscular atrophy, moreover at low levels”. Besides, the “Time in seconds (normalized for the animal's weight) t = 12 weeks” value with mdx mice (group 5, mdx mice, 175 μg/kg/day (7000 IU/day) per os once per week for 12 weeks) is 0.8 s. Further, the “Time in seconds (normalized for the animal's weight) t = 0” value in the data set on mdx mice (group 5, mdx mice, baseline before treatment (12-week arm)) was found to be 0.9 s. In addition, the “Time in seconds (normalized for the animal's weight) t = 24 weeks” value in the data set on mdx mice (group 8, mdx mice, 175 μg/kg/day (7000 IU/day) per os once per week for 24 weeks) turned out to be 0.9 s. Moreover, the “Time in seconds (normalized for the animal's weight) t = 12 weeks” value in the data set with mdx mice (group 8, mdx mice, 175 μg/kg/day (7000 IU/day) per os once per week, 24-week arm) worked out at 1.2 s. In the data set with mdx mice (group 8, mdx mice, baseline before treatment (24-week arm)), the “Time in seconds (normalized for the animal's weight) t = 0” value is 1.7 s. Also, in the data set on mdx mice (mdx mice, test at 24 weeks), the “Increase in resistance to detachment from the grid, in terms of time, versus untreated mdx animals” value turned out to be 80%.
Consider `CC(C)(S)[C@@H](N)C(=O)O` [penicillamine], for which the “Efficacy as therapy of muscular dystrophies” value (“Efficacy as therapy” for short) in the data set on muscular dystrophies is “ineffective”.
Regarding `C[C@]12C=CC(=O)C=C1CC[C@@H]1[C@@H]2C(=O)C[C@@]2(C)[C@H]1CC[C@]2(O)C(=O)CO` [prednisone], the “Delay of the progression time of Duchenne dystrophy” value with Duchenne dystrophy is “more than 3 years”.
As for `C[C@]12CC[C@H]3[C@@H](CCC4=CC(=O)CC[C@@]43C)[C@@H]1CC[C@@H]2O` [testosterone], the “Efficacy as therapy” value in the data set with muscular dystrophies is “ineffective”.
For the molecule vitamin E, the “Efficacy as therapy” value in the data set with muscular dystrophies is reported as “ineffective”.
